From US20080268445A1, “Ant2 Conditional Knockout Mouse and Methods” (Emory University, priority 2002, published 2008)
“Also recorded” adds a separate entry of the source. *1 amine or outer side, *2 acyl side, *3 side chain or, on linkers, in order; H or OH if unused. Where a SMILES comes first, the peptide text is derived from it. Bridges are numbered along the chain shown (N, C = ends). Roman numbers before positions name the chains, in order. [ ]: non-standard residue; d: D form. Actinocin(9to1) = Cc1c2oc3c(C)ccc(C(=O)[*:1])c3nc-2c(C(=O)[*:2])c(N)c1=O; NMeV = CN[C@H](C(=O)O)C(C)C; Sar = CNCC(=O)O

Tests used:
mtPTP [1] = test: Ca++-activation of the mtPTP in liver mitochondria, irreversible release of TPP+; format: biochemical, mouse
Description: The mitochondria were energized with succinate in the presence of TPP^+. TPP^+ is accumulated into the mitochondrial matrix in proportion to ΔP, and its concentration in the suspension medium is monitored using a TPP^+ sensitive electrode. Aliquots of Ca^++ are then added to the reaction solution, with each addition causing a transient release of TPP^+ as the Ca^++ is taken into the mitochondria at the expense of ΔP. […] At this juncture, ΔP collapses and the mitochondrial TPP^+ is irreversibly released into the suspension medium. The amount of Ca^++ required to cause irreversible release of TPP^+ provides a quantitative measurement of mtPTP sensitivity.
To determine if the ANTs provide a regulatory function for the mtPTP, ANT-deficient and control liver mitochondria were loaded with TPP^+ and then Ca^++ was added in the presence or absence of various mtPTP effectors until the TPP^+ was irreversibly released. The relative levels of Ca^++ required for permeability transition were then compared.
The calcium sensitivity of the mtPTP was calculated from 10 nmol CaCl2 additions to a reaction vessel containing 1 mg of mitochondrial protein in 1.0 ml of 250 mM sucrose, 10 mM MOPS, 2 mM K2HPO4, pH 7.2, and 5 mM succinate. Irreversible release of TPP^+ from the mitochondria was indicative of mtPTP activation.

liver mitochondria = test: ADP stimulation of respiration in liver mitochondria (oxygen consumption, succinate); format: biochemical, mouse; conditions: liver mitochondria from Ant1−/−, Ant2fl/Y, Alb-Cre (ANT-deficient) animals
Description: FIGS. 6A and 6B show ANT1 and ANT2 expression and respiration of control and ANT-deficient liver mitochondria. Liver mitochondria were isolated from Ant1^−/−, Ant2^fl/Y (ANT-control) or Ant1^−/−, Ant2^fl/Y, Alb-cre (ANT-deficient) mice. FIG. 6A: Western blot analysis using antibodies against ANT1 (left) and ANT2 (right). Heart mitochondria were used as a positive control for the presence of ANT1. ANT1 and ANT2, 30 kDa. FIG. 6B: Oxygen consumption was measured using succinate as substrate in ANT-control (left) and ANT-deficient (right) mitochondria. MITOS, addition of 600 μg of mitochondrial protein. ADP, 125 nmol ADP; FCCP (uncoupler), 75 nM.
Respiration and oxidative phosphorylation enzyme activities were measured polarographically and spectrophotometrically (42). The membrane potential was calculated from the mitochondrial uptake of TPP^+ using a TPP^+ sensitive electrode (44-47). The mtPTP was examined in liver 10-week-old Ant1^−/− or +/+, Ant2^fl/Y, Alb-Cre +/− animals.

mouse hepatocytes = test: Induction of apoptosis in primary hepatocytes, apoptotic nuclei by Hoechst 33258 staining; format: cell-based; conditions: ANT-deficient and ANT-control hepatocytes; agent alone; 12 h
Description: Primary hepatocytes from ANT-deficient and ANT-control mice were cultured on collagen-coated cover glasses and treated with Fas ligand and Actinomycin D. After 12 h, cells were stained with Hoechst 33258 and images were acquired with a Zeiss Axio-10 fluorescence microscope. Cells with chromatin condensation and nuclei fragmentation were counted as apoptotic.
Hepatocytes were isolated from 12 to 15 month old anesthetized mice, perfused in situ with collagenase-dispase medium (Invitrogen, Carlsbad, Calif.). The hepatocytes were gently released, filtered and cultured on collagen coated cover glasses or plates in Waymouth's MB-752/1 medium containing 27 mM NaHCO3, 2 mM L-glutamine, 10% fetal calf serum, 0.5 μg/ml insulin, 0.5 μg/ml transferrin, 0.5 ng/ml sodium selenate and 100 nM dexamethasone (49). […]
Fas ligand-TNFα+Actinomycin D induced apoptosis was monitored by detection of apoptotic nuclei by staining with 10 μg/ml of Hoechst 33258 (Molecular Probes, Eugene, Oreg.) (9). Br-A23187-induced cell death after 1 h treatment was monitored by measuring the percentage of lactate dehydrogenase (LDH) released into the culture medium as a percentage of the activity in a Triton X-100 total cell lysate.

mtPTP [2] = conditions: ANT-deficient and ANT-control mitochondria; 1 μM FCCP in the presence of Ca++
Description: To determine if the mtPTP could still exist in the absence of ANT, we isolated mitochondria from livers of Ant1^−/−, Ant2^fl/Y, Alb-Cre (ANT-deficient) and Ant1^−/−, Ant2^fl/Y (ANT-control) mice. […] The opening of the pore was monitored by following mitochondrial swelling through decreased light scattering.
Mitochondria (1 mg protein) were incubated in 1.5 ml of the above reaction medium with 16.5 nmol CaCl2. After two minutes 0.1 uM ruthenium red was added followed by FCCP.

[3] = ANT-control (Ant1−/−, Ant2fl/Y) liver mitochondria
[4] = ANT-deficient (Ant1−/−, Ant2fl/Y, Alb-Cre) liver mitochondria

Compound | effect on Ca++ activation of the mtPTP (Ca++ required for permeability transition) (mtPTP [1]; [3]) | effect on Ca++ activation of the mtPTP (Ca++ required for permeability transition) (mtPTP [1]; [4]) | further results
Nc1ncnc2c1ncn2[C@@H]1O[C@H](COP(=O)(O)OP(=O)(O)O)[C@@H](O)[C@H]1O [ADP, adenosine diphosphate] | strongly inhibited | no effect; also recorded: without effect | stimulation of mitochondrial respiration (liver mitochondria): could not be stimulated
C=C1[C@@H]2CC[C@H]3[C@]4(C)C[C@H](O[C@@H]5O[C@H](CO)[C@@H](OS(=O)(=O)O)[C@H](OS(=O)(=O)O)[C@H]5OC(=O)CC(C)C)C[C@@H](C(=O)O)[C@H]4CC[C@]3(C2)[C@H]1O [ATR, atractyloside] | activated the mtPTP | no effect | –
Cc1c2oc3c(C)ccc(C(=O)N[C@@H]4C(=O)N[C@H](C(C)C)C(=O)N5CCC[C@H]5C(=O)N(C)CC(=O)N(C)[C@@H](C(C)C)C(=O)O[C@@H]4C)c3nc-2c(C(=O)N[C@@H]2C(=O)N[C@H](C(C)C)C(=O)N3CCC[C@H]3C(=O)N(C)CC(=O)N(C)[C@@H](C(C)C)C(=O)O[C@@H]2C)c(N)c1=O [Actinomycin D] (I: T[dV]P[Sar][NMeV] / II: T[dV]P[Sar][NMeV]; ester I:1-I:C, II:1-II:C; linker I:N-II:N via Actinocin(9to1)) | – | – | induction of apoptosis (mouse hepatocytes): did not induce apoptosis
CN(C)C(=O)/N=N/C(=O)N(C)C [DIA, diamide] | activated the mtPTP | activated the mtPTP | –
N#CC(C#N)=NNc1ccc(OC(F)(F)F)cc1 [FCCP, carbonyl cyanide p-(trifluoromethoxy)phenylhydrazone] | – | – | FCCP-induced mtPTP activation (mitochondrial swelling) (mtPTP [2]): responded equally well
CC(C)(C)OO [t-H2O2, Tert-butyl hydroperoxide] | activated the mtPTP | activated the mtPTP | –
TNFα | – | – | induction of apoptosis (mouse hepatocytes): did not induce apoptosis
